Tested on: in-house strain of Aspergillus niger
Test: Heat treatment of in-house Aspergillus niger spores in ice tea with natamycin, visual growth
Assay type: cell-based
Parameters: key to growth or no growth: growth (+); no growth (−)
Description: Commercially available ice tea (Lipton, peach flavor, non-carbonated, 1.5 L) was adjusted to high water hardness by adding 1 ml of a solution of 39 g CaCl2 and 27 g MgCl2 added to 934 g water. ⅓ of this ice tea preparation (the pH of which was 3.15) was left as-such, ⅓ of the preparation was enriched with 5 ppm natamycin and ⅓ of the preparation was enriched with 10 ppm natamycin. Samples of 5 ml were made from each preparation in 15 ml sterile plastic tubes. Of each preparation 8 samples were pre-heated to the desired pasteurization temperature using a water bath. Temperatures used were RT, 60, 65, 70, 75, 80, 85 and 90° C. When the desired temperature was reached, 100 μl of a 2500 spores/ml spore suspension of Aspergillus niger ATCC 9029AA was added to each tube. Subsequently, the samples were kept for 30 seconds at the temperature in question in the water bath. Next, the samples were cooled on ice to a temperature of 25° C. Samples were incubated at 25° C. and visually examined for growth (formation of mold flakes or turbidity) for two months. Additionally, samples were enumerated according to ISO protocol 21527-1.2008 on day 0 (before heat treatment) and day 1 (after heat treatment) to count immediate loss of viability. […] For the results, see Table 1. […] For comparative reasons, Example 1 was repeated with an in-house strain of Aspergillus niger. […] For the results, see Table 2.

C[C@@H]1C/C=C/C=C/C=C/C=C/[C@H](O[C@@H]2O[C@H](C)[C@@H](O)[C@H](N)[C@@H]2O)C[C@@H]2O[C@](O)(C[C@@H](O)C[C@H]3O[C@@H]3/C=C/C(=O)O1)C[C@H](O)[C@H]2C(=O)O [natamycin]
growth or no growth (60°C, 5 ppm, day 1): −
growth or no growth (60°C, 5 ppm, day 2): −
growth or no growth (60°C, 5 ppm, day 3): −
growth or no growth (60°C, 5 ppm, day 4): −
growth or no growth (60°C, 5 ppm, day 5): −
growth or no growth (60°C, 5 ppm, day 6): −
growth or no growth (60°C, 5 ppm, day 7): +
growth or no growth (60°C, 5 ppm, day 8): +
growth or no growth (60°C, 5 ppm, day 9): +
growth or no growth (60°C, 5 ppm, day 10): +
growth or no growth (60°C, 5 ppm, day 11): +
growth or no growth (60°C, 5 ppm, day 12): +
growth or no growth (60°C, 5 ppm, day 13): +
growth or no growth (60°C, 5 ppm, day 14): +
growth or no growth (60°C, 10 ppm, day 1): −
growth or no growth (60°C, 10 ppm, day 2): −
growth or no growth (60°C, 10 ppm, day 3): −
growth or no growth (60°C, 10 ppm, day 4): −
growth or no growth (60°C, 10 ppm, day 5): −
growth or no growth (60°C, 10 ppm, day 6): −
growth or no growth (60°C, 10 ppm, day 7): −
growth or no growth (60°C, 10 ppm, day 8): −
growth or no growth (60°C, 10 ppm, day 9): −
growth or no growth (60°C, 10 ppm, day 10): −
growth or no growth (60°C, 10 ppm, day 11): +
growth or no growth (60°C, 10 ppm, day 12): +
growth or no growth (60°C, 10 ppm, day 13): +
growth or no growth (60°C, 10 ppm, day 14): +
germination (65° C., 70° C. and 80° C., in the presence of natamycin): no germination occurred
growth or no growth (65°C, 5 ppm, day 1): −
growth or no growth (65°C, 5 ppm, day 2): −
growth or no growth (65°C, 5 ppm, day 3): −
growth or no growth (65°C, 5 ppm, day 4): −
growth or no growth (65°C, 5 ppm, day 5): −
growth or no growth (65°C, 5 ppm, day 6): −
growth or no growth (65°C, 5 ppm, day 7): −
growth or no growth (65°C, 5 ppm, day 8): −
growth or no growth (65°C, 5 ppm, day 9): −
growth or no growth (65°C, 5 ppm, day 10): −
growth or no growth (65°C, 5 ppm, day 11): −
growth or no growth (65°C, 5 ppm, day 12): −
growth or no growth (65°C, 5 ppm, day 13): −
growth or no growth (65°C, 5 ppm, day 14): −
growth or no growth (65°C, 10 ppm, day 1): −
growth or no growth (65°C, 10 ppm, day 2): −
growth or no growth (65°C, 10 ppm, day 3): −
growth or no growth (65°C, 10 ppm, day 4): −
growth or no growth (65°C, 10 ppm, day 5): −
growth or no growth (65°C, 10 ppm, day 6): −
growth or no growth (65°C, 10 ppm, day 7): −
growth or no growth (65°C, 10 ppm, day 8): −
growth or no growth (65°C, 10 ppm, day 9): −
growth or no growth (65°C, 10 ppm, day 10): −
growth or no growth (65°C, 10 ppm, day 11): −
growth or no growth (65°C, 10 ppm, day 12): −
growth or no growth (65°C, 10 ppm, day 13): −
growth or no growth (65°C, 10 ppm, day 14): −
growth or no growth (70°C, 5 ppm, day 1): −
growth or no growth (70°C, 5 ppm, day 2): −
growth or no growth (70°C, 5 ppm, day 3): −
growth or no growth (70°C, 5 ppm, day 4): −
growth or no growth (70°C, 5 ppm, day 5): −
growth or no growth (70°C, 5 ppm, day 6): −
growth or no growth (70°C, 5 ppm, day 7): −
growth or no growth (70°C, 5 ppm, day 8): −
growth or no growth (70°C, 5 ppm, day 9): −
growth or no growth (70°C, 5 ppm, day 10): −
growth or no growth (70°C, 5 ppm, day 11): −
growth or no growth (70°C, 5 ppm, day 12): −
growth or no growth (70°C, 5 ppm, day 13): −
growth or no growth (70°C, 5 ppm, day 14): −
growth or no growth (70°C, 10 ppm, day 1): −
growth or no growth (70°C, 10 ppm, day 2): −
growth or no growth (70°C, 10 ppm, day 3): −
growth or no growth (70°C, 10 ppm, day 4): −
growth or no growth (70°C, 10 ppm, day 5): −
growth or no growth (70°C, 10 ppm, day 6): −
growth or no growth (70°C, 10 ppm, day 7): −
growth or no growth (70°C, 10 ppm, day 8): −
growth or no growth (70°C, 10 ppm, day 9): −
growth or no growth (70°C, 10 ppm, day 10): −
growth or no growth (70°C, 10 ppm, day 11): −
growth or no growth (70°C, 10 ppm, day 12): −
growth or no growth (70°C, 10 ppm, day 13): −
growth or no growth (70°C, 10 ppm, day 14): −
growth or no growth (75°C, 5 ppm, day 1): −
growth or no growth (75°C, 5 ppm, day 2): −
growth or no growth (75°C, 5 ppm, day 3): −
growth or no growth (75°C, 5 ppm, day 4): −
growth or no growth (75°C, 5 ppm, day 5): −
growth or no growth (75°C, 5 ppm, day 6): −
growth or no growth (75°C, 5 ppm, day 7): −
growth or no growth (75°C, 5 ppm, day 8): −
growth or no growth (75°C, 5 ppm, day 9): −
growth or no growth (75°C, 5 ppm, day 10): −
growth or no growth (75°C, 5 ppm, day 11): −
growth or no growth (75°C, 5 ppm, day 12): −
growth or no growth (75°C, 5 ppm, day 13): −
growth or no growth (75°C, 5 ppm, day 14): −
growth or no growth (75°C, 10 ppm, day 9): −
growth or no growth (75°C, 10 ppm, day 10): −
germination (RT and 60° C., 5 ppm natamycin): delayed germination
germination (RT and 60° C., 10 ppm natamycin): longer delay

Reference: US12102089B2, “Method for inactivating mold spores” (DSM IP ASSETS B.V., priority 2017, dated 2024)
